Legend:
Test in all cases: AUC of viability dose-response curve (% viability x log10 dose units); higher = less sensitive
Settings in all cases: 48 h
NOMO1 = test system: NOMO1
Summary of the method: (§1)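 Viability of medium-adapted leukemia cells was measured by CellTiter-Glo One luminescence after 48 h at 37°C with library compounds in DMSO. Doses were 11 threefold steps from 47 μM to 0.79 nM, in 1536-well plates at 500 or 1000 cells/well. Signals were normalised per plate to DMSO and cell-free wells and fitted with a four-parameter log-logistic model on log10 dose. Area under the curve was integrated by trapezoidal rule, with curves exceeding full viability scaled and failed quality-control curves removed.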

P12-Ichikawa = test system: P12-Ichikawa
Summary of the method: as §1

SEM cells = test system: SEM cells
Summary of the method: as §1

[1] = RPMI 5 mM glucose + 10% dialyzed FBS

Compound | AUC of viability dose-response curve (NOMO1; HPLM + 10% dialyzed FBS) | AUC of viability dose-response curve (NOMO1; RPMI 5 mM glucose + 10% FBS) | AUC of viability dose-response curve (NOMO1; [1]) | AUC of viability dose-response curve (P12-Ichikawa; HPLM + 10% dialyzed FBS) | AUC of viability dose-response curve (P12-Ichikawa; RPMI 5 mM glucose + 10% FBS) | AUC of viability dose-response curve (P12-Ichikawa; [1]) | AUC of viability dose-response curve (SEM cells; HPLM + 10% dialyzed FBS) | AUC of viability dose-response curve (SEM cells; RPMI 5 mM glucose + 10% FBS) | AUC of viability dose-response curve (SEM cells; [1])
CN(C)c1ccc(O)c2c1C[C@H]1C[C@H]3[C@H](N(C)C)C(O)=C(C(N)=O)C(=O)[C@@]3(O)C(O)=C1C2=O | 475 | 474 | 409 | 468 | 452 | 420 | 448 | 467 | 475
CC(C)(C)c1cc(NC(=O)Nc2ccc(-c3cn4c(n3)sc3cc(OCCN5CCOCC5)ccc34)cc2)no1 | 432 | 394 | 435 | 468 | 409 | 442 | 188 | 232 | 176
CCC1(C)CC(=O)NC1=O (stereo not drawn) | 437 | 421 | 450 | 458 | 459 | 467 | 465 | 462 | 460
C[C@](O)(COc1ccc(C#N)cc1)C(=O)Nc1ccc(C#N)c(C(F)(F)F)c1 | 422 | 435 | 433 | 445 | 413 | 382 | 388 | 396 | 400
O=NN(CCCl)C(=O)NCCCl | 462 | 461 | 463 | 465 | 471 | 472 | 463 | 455 | 456
Cl.Cl.Cl.O[C@@H](COc1cccc2ncccc12)CN1CCN([C@@H]2c3ccccc3[C@@H]3[C@H](c4ccccc42)C3(F)F)CC1 | 404 | 397 | 401 | 418 | 391 | 395 | 421 | 418 | 449
CC(C)OC(=O)OCOP(=O)(CO[C@H](C)Cn1cnc2c(N)ncnc21)OCOC(=O)OC(C)C.O=C(O)C=CC(=O)O | 446 | 456 | 448 | – | – | – | – | – | –
CC(NC1=CC=CC=C1)C\2=C\C(=C/N3C(=O)\C=C(/N=C23)N4CCOCC4)C (stereo not drawn) | 466 | 451 | 462 | 470 | 456 | 466 | 475 | 451 | 447
CCCCCCCCCCCCCCCCCCCCCCO | 458 | 444 | 456 | 445 | 461 | 447 | 444 | 460 | 447
CN(C)CCOc1cc(-c2cn[nH]c2)ccc1NC(=O)C1COc2ccccc2O1 (stereo not drawn) | 460 | 442 | 447 | 449 | 455 | 459 | 439 | 453 | 453
COC1=NC(=NC(=C1N\C2=N\CCN2)Cl)C | 446 | 429 | 418 | 413 | 450 | 424 | 420 | 380 | 426
CCC(C)SSc1ncc[nH]1 (stereo not drawn) | 416 | 426 | 432 | 441 | 418 | 393 | 377 | 361 | 323
CCC[C@H](NC(=O)/C(C#N)=C/c1cccc(Br)n1)c1ccccc1 | 437 | 454 | 448 | 449 | 447 | 444 | – | – | –
O=C(NCC[S+](=O)([O-])c1ccc(C(F)(F)F)cn1)c1ccc(Cl)cc1 | 457 | 461 | 463 | 470 | 455 | 452 | 448 | 450 | 446
CC(C)[C@@H](N(CCCN)C(=O)C1=CC=C(C)C=C1)C/2=N/C3=CC(=CC=C3C(=O)N2CC4=CC=CC=C4)Cl | 123 | 82.4 | 106 | 61 | 66.9 | 97.9 | – | – | –
CN1[C@@H]2CC(OC(=O)[C@@H](CO)c3ccccc3)C[C@H]1[C@H]1O[C@H]12 (stereo partly drawn) | 452 | 417 | 451 | 474 | 469 | 435 | 445 | 443 | 442
[NH2][Pt]1([NH2])[O]CC(=O)[O]1 | 462 | 429 | 432 | 467 | 463 | 439 | 455 | 464 | 407
C[C@@H](NC1=CC=CC=C1C(O)=O)C/2=C/C(=C\N3C(=O)/C=C(\N=C23)N4CCOCC4)C | 338 | 331 | 336 | 407 | 359 | 370 | – | – | –
CC\1=C/C=C\C=[N]1[Pt](N)(Cl)Cl | 471 | 465 | 463 | 472 | 467 | 464 | 427 | 465 | 421
CC(=O)N(C)c1cccc(-c2ccnc3c(C(=O)c4cccs4)cnn23)c1 | 477 | 470 | 437 | 458 | 454 | 453 | 447 | 456 | 439
Cc1c(CCOc2ccc(C(=O)O)cc2)c2cc(Cl)ccc2n1C(c1ccccc1)c1ccccc1 | 457 | 442 | 443 | 442 | 468 | 459 | 470 | 450 | 451
CC1=CC=CC=C1N2\C(=N/C3=C(C(=CC=C3)C)C2=O)C[N]4C=NC5=C4N=CN=C5N | 369 | 427 | 406 | 439 | 412 | 419 | 344 | 308 | 344
N=C(CCSCc1csc(N=C(N)N)n1)N[S+](N)(=O)[O-] | 459 | 439 | 461 | 467 | 454 | 432 | 452 | 458 | 421
CC(N[C@H]1C[C@@H]1c1ccccc1)c1ccc2c(c1)OCCO2 (stereo partly drawn) | 434 | 470 | 470 | 458 | 469 | 451 | 475 | 467 | 471

Compound | AUC of viability dose-response curve (NOMO1; HPLM + 10% dialyzed FBS) | AUC of viability dose-response curve (NOMO1; RPMI 5 mM glucose + 10% FBS) | AUC of viability dose-response curve (NOMO1; [1]) | AUC of viability dose-response curve (P12-Ichikawa; HPLM + 10% dialyzed FBS) | AUC of viability dose-response curve (P12-Ichikawa; RPMI 5 mM glucose + 10% FBS) | AUC of viability dose-response curve (P12-Ichikawa; [1]) | AUC of viability dose-response curve (SEM cells; HPLM + 10% dialyzed FBS) | AUC of viability dose-response curve (SEM cells; RPMI 5 mM glucose + 10% FBS) | AUC of viability dose-response curve (SEM cells; [1])
CC[C@H](CC#N)OC(=O)N[C@@H](C)c1cccc(NC(=O)Nc2ccc(-c3cnco3)c(OC)c2)c1 | 371 | 368 | 379 | 384 | 359 | 363 | 356 | 347 | 408
CC/1=C/C(=O)N(O)/C(=C1)C2CCCCC2 | 441 | 445 | 446 | 435 | 415 | 430 | 430 | 419 | 427
CC1=C(/C=C/C(C)=C/C=C/C(C)=C/C=C/C=C(C)/C=C/C=C(C)/C=C/C2=C(C)CCCC2(C)C)C(C)(C)CCC1 | 450 | 444 | 459 | 469 | 465 | 440 | 477 | 458 | 474
COC(=O)Nc1nc2cc(C(=O)c3cccs3)ccc2[nH]1 | 297 | 247 | 269 | 193 | 206 | 242 | 212 | 156 | 211
CC1CCC(C(=O)N(c2cc(C#CC(C)(C)C)sc2C(=O)O)C2CCC(O)CC2)CC1 (stereo not drawn) | 410 | 408 | 411 | 419 | 394 | 375 | 426 | 430 | 400
CCc1cncnc1N1CCN(Cc2nc3cc(C(F)(F)F)ccc3[nH]2)CC1 | 462 | 425 | 426 | 445 | 437 | 451 | 429 | 425 | 426
Cn1c(=O)c2c(ncn2C)n(C)c1=O.O=C(O)CC(O)(CC(=O)O)C(=O)O | 439 | 465 | 455 | 459 | 462 | 472 | 472 | 456 | 475
COc1cc2nc(N(C)CCCNC(=O)C3CCCO3)nc(N)c2cc1OC (stereo not drawn) | 336 | 297 | 331 | 416 | 431 | 384 | 358 | 355 | 378
C/C=C1\NC(=O)[C@H]2CSSCC/C=C\[C@H](CC(=O)N[C@H](C(C)C)C(=O)N2)OC(=O)[C@H](C(C)C)NC1=O | 182 | 181 | 189 | 175 | 174 | 176 | 166 | 170 | 162
OC(=O)C1=CC=C(NC2=NC3=C(C\N=C(/C4=CC(=CC=C34)Cl)C5=C(F)C=CC=C5F)C=N2)C=C1 | 394 | 343 | 362 | 344 | 345 | 353 | 389 | 373 | 365
Cc1ccc(NC(=O)c2ccc(CN3CCN(C)CC3)cc2)cc1Nc1nc(-c2cccnc2)cs1 | 417 | 468 | 440 | 417 | 405 | 406 | 238 | 255 | 223
COC[C@H]1OC(=O)C2=COC3=C2[C@@]1(C)\C4=C(C5CCC(=O)[C@@]5(C)C[C@H]4OC(C)=O)/C3=O (stereo partly drawn) | – | – | – | – | – | – | 397 | 432 | 356
NC1(Cc2ccc(Cl)cc2)CCN(c2ncnc3[nH]ccc23)CC1 | 418 | 395 | 381 | 425 | 384 | 393 | 377 | 357 | 352
COC1=CC2=NC=CC(=C2C=C1)OC3=CN=C(NC(=O)C/4=C(C)/N(CC(C)(C)O)N(C4=O)C5=CC=CC=C5)C=C3 | 430 | 431 | 411 | 425 | 414 | 420 | – | – | –
O=C(NOCC(O)CO)c1cc(Br)c(F)c(F)c1Nc1ccc(I)cc1F (stereo not drawn) | 238 | 244 | 219 | 361 | 333 | 345 | 327 | 340 | 306
CC1(C)CCC[C@]2(C)[C@H]3CC(=O)O[C@]3(C)CC[C@@H]12 | 473 | 468 | 440 | 468 | 456 | 453 | 470 | 463 | 461
COc1ccc(CC2NCCc3cc(OC)c(OC)cc32)cc1OC (stereo not drawn) | 451 | 427 | 407 | 459 | 416 | 420 | 397 | 390 | 403
Cc1nc(NC(=O)N2CCC[C@H]2C(N)=O)sc1-c1ccnc(C(C)(C)C(F)(F)F)c1 | – | – | – | 424 | 386 | 399 | 384 | 431 | 400
C#Cc1cccc(Nc2ncnc3cc(OCCOC)c(OCCOC)cc23)c1 | 433 | 440 | 400 | 445 | 421 | 418 | 425 | 453 | 390
CCCCn1c(=O)n(Cc2ccccc2F)c(=O)c2nc(Cc3ccc(NC(C)=O)cc3)[nH]c21 | – | – | – | 425 | 409 | 410 | 452 | 442 | 444
Cc1ccccc1N1C(=O)c2cc([S+](N)(=O)[O-])c(Cl)cc2NC1C (stereo not drawn) | – | – | – | 449 | 460 | 450 | 448 | 413 | 462
CO[C@H]1/C=C/O[C@@]2(C)Oc3c(C)c(O)c4c(O)c(c5c(nc6cc(C)ccn65)c4c3C2=O)NC(=O)/C(C)=C\C=C\[C@H](C)[C@H](O)[C@@H](C)[C@@H](O)[C@@H](C)[C@H](OC(C)=O)[C@@H]1C | – | – | – | – | – | – | 410 | 394 | 375
CC(=O)O[C@H]1C(=O)[C@]2(C)[C@@H](O)C[C@H]3OC[C@@]3(OC(C)=O)C2[C@H](OC(=O)C4=CC=CC=C4)[C@]5(O)C[C@H](OC(=O)[C@H](O)[C@@H](NC(=O)C6=CC=CC=C6)C7=CC=CC=C7)\C(=C1/C5(C)C)C (stereo partly drawn) | – | – | – | 148 | 143 | 195 | – | – | –

Reference: the supplement of paper PMC11451515
